From PMC11576395 (iScience, 2024)
Where two headings read alike, the source gives them in different places.

What was measured:
Assay in all cases: thioflavin T aggregation assay of recombinant protein, […] compound
Type in all cases: biochemical
Settings in all cases: read-out: % inhibition at 50 μM
α-synuclein [1] = biological target: T1, α-synuclein (Homo sapiens, UniProt P37840)
[2] = biological target: T2, AIMP2 (aminoacyl-tRNA synthetase interacting multifunctional protein-2) (Homo sapiens, UniProt Q13155)
T2 sequence (Q13155 1-320): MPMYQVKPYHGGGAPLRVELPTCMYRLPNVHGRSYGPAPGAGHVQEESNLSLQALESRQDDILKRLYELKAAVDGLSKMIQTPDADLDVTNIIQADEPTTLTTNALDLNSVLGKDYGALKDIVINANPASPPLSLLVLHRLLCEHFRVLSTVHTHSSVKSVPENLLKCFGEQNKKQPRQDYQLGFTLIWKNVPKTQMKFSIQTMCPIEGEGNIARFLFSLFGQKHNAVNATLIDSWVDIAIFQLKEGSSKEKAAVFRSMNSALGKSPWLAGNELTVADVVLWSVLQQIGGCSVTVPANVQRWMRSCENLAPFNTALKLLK

α-synuclein [3] = biological target: T1, α-synuclein; remark: listed apart in the source

Row | SMILES | inhibition at 50 µM (α-synuclein [1]) | inhibition at 50 µM [2] | inhibition at 50 µM (α-synuclein [3])
1 | CC(C)COc1ccc2c(c1)CC[C@@H]1[C@@H]2CC[C@]2(C)[C@H](O)CC[C@@H]12 [SG13-136, (8R,9S,13S,14S,17R)-3-isobutoxy-13-methyl-7,8,9,11,12,13,14,15,16,17-decahydro-6H-cyclopenta[a]phenanthren-17-ol] | 36.7% | 56.2% | –
2 | C[C@]12CC[C@H]3[C@@H](CCC4=CC(=O)CC[C@@H]43)[C@@H]1CC[C@@H]2O [Nandrolone] | – | – | ~39.9%
